Columns and labels:
Type in all cases: physicochemical
[1] = BET surface area measurement (nitrogen adsorption at 77 K); settings: nitrogen adsorbate, PSA:GF ratio based on mass charged to crystallizer
Description: A Quantachrome Autosorb-IC (Boynton Beach, Fla.) was used to measure surface areas of the samples at 77 K. A known amount of powder (typically 500 mg) was loaded into a Quantachrome powder cell and outgassed for about 1 hr. Nitrogen was used as the adsorbate, and the equations derived by Brunauer, Emmett, and Teller (BET) were used by the software provided with the instrument to calculate the specific surface areas.

[2] = Powder flow properties: bulk density, tapped density, compressibility (modified USP procedure); settings: for Percent Compressibility: computed from bulk density and tapped density (equation 3)
Description: Bulk densities of selected samples were measured using a modified USP procedure. A mass of sample (M), typically 0.5 g, was passed through a No. 18 test sieve (ASTM USA Standard Test Sieve, Fischer Scientific) into a tared 10 mL graduated cylinder. The powder was carefully leveled and the unsettled apparent volume (Vo) was read to the nearest 0.05 mL. The bulk density (ρb) was then calculated using equation 1: [formula] Each bulk density measurement was performed in triplicate, and the average value was reported. Tapped densities of selected samples were also obtained using a modified USP procedure. After the bulk density had been determined from the procedure described above, the graduate cylinder was mechanically tapped by raising the cylinder and allowing it to drop under its own weight using an apparatus that provided a fixed drop height of 14±2 mm. The nominal tap rate was 60 drops per minute. The cylinder was initially tapped 500 times and the tapped volume (VT) was read to the nearest 0.05 mL. The procedure was then repeated, in increments of 500 taps, until the difference between succeeding measurements was less than 2%. The tapped density (ρt) was then calculated using equation 2: [formula] Each tapped density measurement was performed in triplicate, and the average values for each sample is reported. Powder compressibility was computed from the bulk density and tapped density using equation 3: [formula] Determination of Griseofulvin Content in the Powder Samples
Powder flow properties, as represented by the bulk density, tapped density, and percent compressibility, were determined for selected samples and are shown in Table 2.0, in which GF is griseofluvin and the PSA:GF ratio was based on the original mass charged to the crystallizer. Absent values from the table indicate inadequate sample volume for the measurement technique.

[3] = Short term stability study at ICH conditions, characterised by XRPD
Description: A short term stability study was conducted at two International Conference on Harmonization (ICH) stability conditions, i.e. 25° C./60% relative humidity and 40° C./75% relative humidity. A thin layer of powder was placed in a 20 mL capped glass scintillation vial, and the vials were placed in a sealed desicator that was set to either 25 or 40° C., and to the desired relative humidity over the appropriate saturated salt solution^32. Relative humidities of 60% and 75% were obtained using sodium bromide or sodium chloride, respectively. After initial storage (4 days), the samples were removed and characterized by XRPD. The samples were then returned to appropriate desicator and stored for another 19 days with the caps removed. Final sample characterization was by SEM and XRPD.

BET-Surface Area [1]: 2.98 m^2/g
Bulk Density ([2]; average of triplicate): 0.2 ± 0.02 g/mL
Tapped Density ([2]; average of triplicate, tapped in increments of 500 taps): 0.4 ± 0.02 g/mL
Percent Compressibility [2]: 49 +/− 3%
Percent Compressibility ([2]; listed as bulk griseofulvin): 49±3%
XRPD diffraction pattern after storage (phase change) ([3]; stored for 23 days at 25° C./60% RH): No new peaks
XRPD diffraction pattern after storage (phase change) ([3]; stored for 23 days at 40° C./75% RH): No new peaks
SMILES: COC1=CC(=O)C[C@@H](C)[C@]12Oc1c(Cl)c(OC)cc(OC)c1C2=O [Bulk GF, griseofulvin]

Reference: patent publication US20060078573A1, “Methods of modifying crystal habit” (priority 2004, published 2006)
